Experiment [1] addresses Disintegrin and metalloproteinase domain-containing protein 17 (Sus scrofa, UniProt O77636). Put plainly: Inhibition of porcine TACE.
Experiment [2] has as its target 72 kDa type IV collagenase (Homo sapiens, UniProt P08253). The experiment is described as follows: Inhibition of MMP2.
Another experiment has as its target Stromelysin-1 (Homo sapiens, UniProt P08254). The experiment is described as follows: Inhibition of MMP3.
Another experiment has as its target T1, Matrilysin (Homo sapiens, UniProt P09237).
T1 sequence (P09237 whole entry): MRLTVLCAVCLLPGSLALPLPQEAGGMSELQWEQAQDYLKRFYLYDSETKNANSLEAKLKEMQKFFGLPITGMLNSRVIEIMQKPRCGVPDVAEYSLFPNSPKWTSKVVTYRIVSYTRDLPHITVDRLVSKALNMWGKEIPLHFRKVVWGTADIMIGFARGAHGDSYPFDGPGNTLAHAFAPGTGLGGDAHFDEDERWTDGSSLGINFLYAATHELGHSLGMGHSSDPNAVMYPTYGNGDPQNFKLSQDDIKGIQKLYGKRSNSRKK
Put plainly: Inhibition of MMP7.

In experiment [3] the target is Macrophage metalloelastase (Homo sapiens, UniProt P39900). The experiment is described as follows: Inhibition of MMP12.
The next experiment deals with Collagenase 3 (Homo sapiens, UniProt P45452). The experiment is described as follows: Inhibition of MMP13.

Each structure is given as a SMILES string.

Stromelysin-1, sequence (P08254 whole entry): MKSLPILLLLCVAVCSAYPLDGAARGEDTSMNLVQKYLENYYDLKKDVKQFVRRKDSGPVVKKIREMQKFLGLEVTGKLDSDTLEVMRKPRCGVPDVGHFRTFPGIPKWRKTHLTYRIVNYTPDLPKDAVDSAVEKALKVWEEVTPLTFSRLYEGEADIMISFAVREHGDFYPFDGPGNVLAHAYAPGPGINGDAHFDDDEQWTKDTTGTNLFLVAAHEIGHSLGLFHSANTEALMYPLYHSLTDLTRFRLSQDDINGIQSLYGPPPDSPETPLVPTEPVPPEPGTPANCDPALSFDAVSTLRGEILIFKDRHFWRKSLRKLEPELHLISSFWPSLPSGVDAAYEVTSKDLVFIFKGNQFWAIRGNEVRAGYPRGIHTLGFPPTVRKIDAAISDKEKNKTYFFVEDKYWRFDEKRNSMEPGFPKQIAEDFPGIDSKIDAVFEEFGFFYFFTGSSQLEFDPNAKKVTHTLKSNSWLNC
Macrophage metalloelastase, sequence (P39900 whole entry): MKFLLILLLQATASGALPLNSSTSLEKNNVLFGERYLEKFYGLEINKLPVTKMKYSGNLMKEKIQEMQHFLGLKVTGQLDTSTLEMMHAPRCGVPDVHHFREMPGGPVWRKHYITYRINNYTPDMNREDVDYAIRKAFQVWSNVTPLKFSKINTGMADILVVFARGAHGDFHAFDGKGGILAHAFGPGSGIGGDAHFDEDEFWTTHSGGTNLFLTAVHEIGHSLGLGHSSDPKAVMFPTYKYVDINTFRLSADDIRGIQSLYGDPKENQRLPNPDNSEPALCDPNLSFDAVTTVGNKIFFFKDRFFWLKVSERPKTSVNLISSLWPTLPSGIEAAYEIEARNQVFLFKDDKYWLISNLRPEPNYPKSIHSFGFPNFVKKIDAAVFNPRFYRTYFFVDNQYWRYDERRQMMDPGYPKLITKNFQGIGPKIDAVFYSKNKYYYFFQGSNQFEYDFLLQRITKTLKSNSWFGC
72 kDa type IV collagenase, sequence (P08253 whole entry): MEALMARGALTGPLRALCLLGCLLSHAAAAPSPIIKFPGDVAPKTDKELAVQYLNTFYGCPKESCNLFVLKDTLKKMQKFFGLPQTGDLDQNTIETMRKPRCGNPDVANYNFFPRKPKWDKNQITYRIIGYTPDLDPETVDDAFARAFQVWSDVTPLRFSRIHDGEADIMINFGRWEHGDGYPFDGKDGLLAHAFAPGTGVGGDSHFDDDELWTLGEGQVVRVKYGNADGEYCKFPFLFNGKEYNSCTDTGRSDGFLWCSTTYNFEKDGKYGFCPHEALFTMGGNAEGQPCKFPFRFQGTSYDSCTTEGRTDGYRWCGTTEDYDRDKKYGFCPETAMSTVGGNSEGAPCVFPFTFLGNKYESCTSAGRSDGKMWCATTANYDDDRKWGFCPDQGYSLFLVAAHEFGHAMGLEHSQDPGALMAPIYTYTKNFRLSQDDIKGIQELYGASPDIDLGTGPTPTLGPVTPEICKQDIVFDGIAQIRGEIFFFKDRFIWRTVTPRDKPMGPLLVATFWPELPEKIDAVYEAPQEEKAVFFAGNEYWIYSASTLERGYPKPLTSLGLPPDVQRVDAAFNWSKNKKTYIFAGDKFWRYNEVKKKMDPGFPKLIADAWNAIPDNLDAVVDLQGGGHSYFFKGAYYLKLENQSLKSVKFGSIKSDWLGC
Disintegrin and metalloproteinase domain-containing protein 17, sequence (O77636 whole entry, the tested form may be a part): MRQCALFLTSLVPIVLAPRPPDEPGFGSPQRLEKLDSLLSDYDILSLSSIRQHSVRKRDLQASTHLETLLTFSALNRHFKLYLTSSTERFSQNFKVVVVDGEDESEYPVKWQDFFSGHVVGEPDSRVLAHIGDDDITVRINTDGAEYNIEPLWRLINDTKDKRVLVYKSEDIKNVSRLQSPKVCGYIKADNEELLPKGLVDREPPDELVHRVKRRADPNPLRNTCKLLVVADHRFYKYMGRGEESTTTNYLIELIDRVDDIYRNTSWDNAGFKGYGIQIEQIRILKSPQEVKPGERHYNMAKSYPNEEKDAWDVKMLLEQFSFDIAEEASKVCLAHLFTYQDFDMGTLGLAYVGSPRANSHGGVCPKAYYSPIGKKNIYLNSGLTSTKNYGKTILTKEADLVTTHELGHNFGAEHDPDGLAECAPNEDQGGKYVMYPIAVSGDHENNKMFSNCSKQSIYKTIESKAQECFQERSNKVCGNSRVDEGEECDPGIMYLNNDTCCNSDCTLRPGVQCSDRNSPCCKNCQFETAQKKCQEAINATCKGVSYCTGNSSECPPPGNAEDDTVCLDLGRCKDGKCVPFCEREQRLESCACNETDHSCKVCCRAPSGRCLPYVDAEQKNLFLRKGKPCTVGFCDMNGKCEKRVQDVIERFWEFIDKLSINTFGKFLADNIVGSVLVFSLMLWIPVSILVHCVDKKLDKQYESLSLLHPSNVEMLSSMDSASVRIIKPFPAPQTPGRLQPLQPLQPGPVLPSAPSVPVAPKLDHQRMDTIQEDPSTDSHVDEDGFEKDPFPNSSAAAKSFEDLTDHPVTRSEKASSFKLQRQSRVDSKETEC

For orientation: IC50 means the concentration that inhibits the measured activity by half. A low value points to higher potency. The term Ki denotes the equilibrium dissociation constant of an inhibitor or competing ligand from its target. High values mean a looser hold on the target, low ones a stronger hold on the target. Turning to `Cc1cc(COc2ccc(C(=O)NCc3n[nH]c(=S)[nH]3)cc2)c2ccccc2n1`, the concentration for half-maximal inhibition (IC50) in experiment [1] was over 1 µM. The Ki in experiment [2] is over 3.33 µM; on Stromelysin-1, over 4.5 µM; on Matrilysin it was over 6.37 µM; in experiment [3], over 6.02 µM; at Collagenase 3, over 5.03 µM.

As to `Cc1cc(COc2ccc(C(=O)NC3(Cc4n[nH]c(=S)[nH]4)CCN(C(=O)OC(C)(C)C)CC3)cc2)c2ccccc2n1`, the IC50 in experiment [1] turned out to be 0.036 µM. Besides, the Ki was over 3.33 µM in experiment [2]; over 4.5 µM at Stromelysin-1; over 6.37 µM on Matrilysin; over 6.02 µM in experiment [3]; over 5.03 µM at Collagenase 3.

Consider `Cc1cc(COc2ccc(C(=O)N[C@@H]3CN(C(=O)OC(C)(C)C)CC[C@@H]3c3n[nH]c(=S)[nH]3)cc2)c2ccccc2n1` (relative stereo), for which, in experiment [1], half-maximal inhibition (IC50) was put at 0.075 µM. Also, the Ki in experiment [2] is over 3.33 µM; at Stromelysin-1, over 4.5 µM; at Matrilysin it was over 6.37 µM; in experiment [3], over 6.02 µM; on Collagenase 3, over 5.03 µM.

`Cc1cc(COc2ccc(C(=O)N[C@@H]3CN(C(=O)OC(C)(C)C)C[C@@H]3c3n[nH]c(=S)[nH]3)cc2)c2ccccc2n1` (relative stereo) came in with an IC50 in experiment [1] of 0.014 µM. Also, the Ki in experiment [2] is over 3.33 µM; at Stromelysin-1, over 4.5 µM; on Matrilysin it was over 6.37 µM; in experiment [3] it was 3.56 µM; on Collagenase 3, over 5.03 µM.

As for `Cc1cc(COc2ccc(C(=O)N[C@@H]3CN(S(C)(=O)=O)CC[C@@H]3c3n[nH]c(=S)[nH]3)cc2)c2ccccc2n1` (relative stereo), in experiment [1], the IC50 amounted to 0.028 µM. Moreover, the Ki in experiment [2] is over 3.33 µM; on Stromelysin-1, over 4.5 µM; at Matrilysin, over 6.37 µM; in experiment [3] it was over 6.02 µM; on Collagenase 3 it was over 5.03 µM.

In turn, `Cc1cc(COc2ccc(C(=O)NC3(Cc4n[nH]c(=S)[nH]4)CCOCC3)cc2)c2ccccc2n1` registered a half-inhibitory concentration (IC50) in experiment [1] of 0.024 µM. In addition, the Ki in experiment [2] came to 1.6 µM; on Stromelysin-1 it was 2.1 µM; at Matrilysin, 0.635 µM; in experiment [3], 0.223 µM; on Collagenase 3, 0.753 µM.

In turn, `CCCN1CC[C@H](c2n[nH]c(=S)[nH]2)[C@H](NC(=O)c2ccc(OCc3cc(C)nc4ccccc34)cc2)C1` (relative stereo) gave a concentration for half-maximal inhibition (IC50) in experiment [1] of 0.015 µM. Further, the inhibition constant (Ki) is over 3.33 µM in experiment [2]; over 4.5 µM on Stromelysin-1; over 6.37 µM on Matrilysin; over 6.02 µM in experiment [3]; over 5.03 µM at Collagenase 3.

`Cc1cc(COc2ccc(C(=O)N[C@@H]3CCC[C@@H]3c3n[nH]c(=S)[nH]3)cc2)c2ccccc2n1` (relative stereo) displayed a 50% inhibitory concentration (IC50) in experiment [1] of 0.041 µM. Also, the inhibitory constant (Ki) is over 3.33 µM in experiment [2]; over 4.5 µM on Stromelysin-1; over 6.37 µM on Matrilysin; over 6.02 µM in experiment [3]; over 5.03 µM on Collagenase 3.

`CC(=O)N1C[C@H](c2n[nH]c(=S)[nH]2)[C@H](NC(=O)c2ccc(OCc3cc(C)nc4ccccc34)cc2)C1` (relative stereo) gave a half-maximal inhibitory concentration (IC50) in experiment [1] of 0.0015 µM. In addition, the Ki in experiment [2] was over 3.33 µM; at Stromelysin-1, over 4.5 µM; on Matrilysin, over 6.37 µM; in experiment [3], over 6.02 µM; at Collagenase 3, over 5.03 µM.

Compound `Cc1cc(COc2ccc(C(=O)NC(C)(C)Cc3n[nH]c(=S)[nH]3)cc2)c2ccccc2n1` returned an IC50 in experiment [1] of 0.055 µM. Moreover, the Ki was over 3.33 µM in experiment [2]; over 4.5 µM at Stromelysin-1; over 6.37 µM on Matrilysin; over 6.02 µM in experiment [3]; over 5.03 µM on Collagenase 3.

The compound `CC(=O)N1CC[C@H](c2n[nH]c(=S)[nH]2)[C@H](NC(=O)c2ccc(OCc3cc(C)nc4ccccc34)cc2)C1` (relative stereo) came in with an IC50 in experiment [1] of 0.0025 µM. For the same compound, the Ki in experiment [2] was over 3.33 µM; at Stromelysin-1, over 4.5 µM; at Matrilysin it was over 6.37 µM; in experiment [3] it was over 6.02 µM; at Collagenase 3, 3.14 µM.

`Cc1cc(COc2ccc(C(=O)NCCc3n[nH]c(=S)[nH]3)cc2)c2ccccc2n1` displayed a half-inhibitory concentration (IC50) in experiment [1] of 0.21 µM. For the same compound, the Ki was over 3.33 µM in experiment [2]; over 4.5 µM on Stromelysin-1; over 6.37 µM at Matrilysin; over 6.02 µM in experiment [3]; over 5.03 µM on Collagenase 3.

Compound `O=C(NCCCc1n[nH]c(=S)[nH]1)c1ccc(OCc2ccnc3ccccc23)cc1` gave an IC50 in experiment [1] of 0.294 µM. Besides, the Ki in experiment [2] was over 3.33 µM; at Stromelysin-1, over 4.5 µM; at Matrilysin, over 6.37 µM; in experiment [3], over 6.02 µM; at Collagenase 3, over 5.03 µM.

As for `Cc1cc(COc2ccc(C(=O)N[C@@H]3CN(C)CC[C@@H]3c3n[nH]c(=S)[nH]3)cc2)c2ccccc2n1` (relative stereo), half-maximal inhibition in experiment [1] (IC50) required 0.016 µM. Moreover, the inhibitory constant (Ki) in experiment [2] was over 3.33 µM; on Stromelysin-1 it was over 4.5 µM; on Matrilysin, 5.37 µM; in experiment [3], 0.958 µM; at Collagenase 3, over 5.03 µM.

Take `C#CCN1CC[C@H](c2n[nH]c(=S)[nH]2)[C@H](NC(=O)c2ccc(OCc3cc(C)nc4ccccc34)cc2)C1` (relative stereo): the midpoint of inhibition in experiment [1], the IC50, lay at 0.073 µM. The Ki was over 3.33 µM in experiment [2]; over 4.5 µM at Stromelysin-1; over 6.37 µM on Matrilysin; over 6.02 µM in experiment [3]; over 5.03 µM at Collagenase 3.

In the case of `Cc1cc(COc2ccc(C(=O)N[C@@H]3CN(C(C)C)CC[C@@H]3c3n[nH]c(=S)[nH]3)cc2)c2ccccc2n1` (relative stereo), it took 0.031 µM to reach half-maximal inhibition in experiment [1] (IC50). Moreover, the Ki in experiment [2] was over 3.33 µM; on Stromelysin-1, over 4.5 µM; on Matrilysin, over 6.37 µM; in experiment [3], over 6.02 µM; at Collagenase 3, over 5.03 µM.

In turn, `Cc1cc(COc2ccc(C(=O)N[C@@H]3CNCC[C@@H]3c3n[nH]c(=S)[nH]3)cc2)c2ccccc2n1` (relative stereo) yielded an IC50 in experiment [1] of 0.0094 µM. Further, the Ki in experiment [2] was over 3.33 µM; on Stromelysin-1, over 4.5 µM; at Matrilysin, over 6.37 µM; in experiment [3], over 6.02 µM; at Collagenase 3 it was over 5.03 µM.

In turn, `Cc1cc(COc2ccc([C@]3(N)CCN([C@H](CC(C)C)c4n[nH]c(=S)[nH]4)C3=O)cc2)c2ccccc2n1` registered a half-maximal inhibitory concentration (IC50) in experiment [1] of over 1 µM. The inhibitory constant (Ki) in experiment [2] was over 3.33 µM; on Stromelysin-1, over 4.5 µM; on Matrilysin it was over 6.37 µM; in experiment [3], over 6.02 µM; at Collagenase 3, over 5.03 µM.

`CCCN1C[C@H](c2n[nH]c(=S)[nH]2)[C@H](NC(=O)c2ccc(OCc3cc(C)nc4ccccc34)cc2)C1` (relative stereo) came in with a 50% inhibitory concentration (IC50) in experiment [1] of 0.0099 µM. Besides, the inhibition constant (Ki) in experiment [2] was over 3.33 µM; at Stromelysin-1, over 4.5 µM; on Matrilysin, over 6.37 µM; in experiment [3], over 6.02 µM; at Collagenase 3, 2.46 µM.

In experiment [1], `Cc1cc(COc2ccc(C(=O)N[C@@H]3CCNC[C@@H]3c3n[nH]c(=S)[nH]3)cc2)c2ccccc2n1` (relative stereo) registered a concentration for half-maximal inhibition (IC50) of 0.043 µM. The Ki in experiment [2] is over 3.33 µM; on Stromelysin-1 it was over 4.5 µM; on Matrilysin, over 6.37 µM; in experiment [3] it was over 6.02 µM; at Collagenase 3, over 5.03 µM.

`Cc1cc(COc2ccc(C(=O)N[C@@H]3CCOC[C@@H]3c3n[nH]c(=S)[nH]3)cc2)c2ccccc2n1` (relative stereo) showed an IC50 in experiment [1] of 0.0081 µM. Also, the Ki in experiment [2] is over 3.33 µM; at Stromelysin-1 it was over 4.5 µM; at Matrilysin it was over 6.37 µM; in experiment [3], over 6.02 µM; at Collagenase 3, over 5.03 µM.

For the compound `Cc1cc(COc2ccc(C(=O)N[C@@H]3CNC[C@@H]3c3n[nH]c(=S)[nH]3)cc2)c2ccccc2n1` (relative stereo), in experiment [1], the 50% inhibitory concentration (IC50) amounted to 0.092 µM. Also, the inhibitory constant (Ki) in experiment [2] is over 3.33 µM; at Stromelysin-1 it was over 4.5 µM; on Matrilysin, over 6.37 µM; in experiment [3] it was over 6.02 µM; on Collagenase 3, over 5.03 µM.
